This passage reports MIC results from ChEMBL document CHEMBL5252530, “Biological importance of structurally diversified chromenes” (Eur J Med Chem, 2016).

SMILES strings stand for the structures. Converted amounts (≈) assume the structure as drawn.

In the test the test system is Mycobacterium tuberculosis variant bovis. The experiment in a line: Antibacterial activity against Mycobacterium bovis BCG assessed as reduction in cell viability measured after 14 days by microdrop agar proportion test. The class given is functional. The conditions noted are these: 336 h, time 14 day.

As to `COC(=O)c1ccc(C(=O)Oc2ccc3c(c2)OC(C)(C)C=C3C)cc1`, the MIC stood at 2 µg/mL (≈ 5.68 µM).

The MIC is the smallest concentration in the dilution series that meets the test's criterion for growth inhibition.
